Source: US5595760A, “Sustained release of peptides from pharmaceutical compositions” (Delab, priority 1995, dated 1997)

Legend:
[1] = Solubility of the peptide salt in water; assay type: physicochemical; details: pH 7.0, 25° C.
Source text: As used herein, a "gelable peptide salt" is a peptide salt which will form a gel upon contact with bodily fluids. Whether a peptide salt is "gelable," and will have the desired biological properties, can be determined by testing the peptide salt in the in vitro and in vivo assays described below. The term "peptide" means a natural or synthetic molecule comprising two or more amino acids linked by the carboxyl group of one amino acid and the amino group of another. Thus, the term includes both polypeptides and proteins. A "soluble" peptide salt is one having a solubility of 0.1 mg/ml, and preferably 1.0 mg/ml, in water at a pH of 7.0 and a temperature of 25° C.
A solution of the peptide composition is undesirable, because such a solution, once injected, will disperse and not form the sustained-release gel of the invention. Thus, the amount of water is carefully selected to be less than that required to dissolve a specific amount of the peptide composition For example, at 25° C., pH 7.0, 1.0 ml or less of water is required when mixed with 26 mg of the acetate salt of SOMATULINE™ to avoid the formation of a solution. By using an amount of water that is less than 50 percent, and preferably less than 20 or 10 percent, of the amount of water required to dissolve a peptide salt, a semisolid or paste-like suspension, rather than a solution, is ensured.

[2] = In vivo blood level release profile in dogs (plasma RIA); parameters: species or system dog; details: gels at sufficient dosages
Description: Once a particular peptide salt is found to gel in any of the in vitro assays described above, an in vivo assay can be used to determine the suitability of that peptide salt for therapeutic use in animals or humans. A blood level release profile for a particular peptide salt can be determined by injecting the peptide salt into an animal, e.g., a Sprague Dawley rat or dog, and testing blood samples taken at specific time intervals, e.g., hourly intervals over 1 to 5 days, or 12 or 24 hour intervals over 5 to 45 days, for the concentration of the peptide. The suitability of a particular peptide gel, or a peptide/carrier gel, for therapeutic delivery of the peptide can thus be determined.
Specifically, animals are anaesthetized with pentobarbital (60 mg/kg i.p. for rats), and a jugular vein is cannulated for blood sampling. A test peptide semisolid suspension or solid composition (or standard solution for comparison purposes), e.g., of SOMATULINE™, is injected subcutaneously at a specific dosage, e.g., 1.0, 3.0, or 6.0 mg/kg of SOMATULINE™. […] The amount of peptide in the plasma samples is determined by a standard radioimmunoassay (RIA) technique that allows a direct measurement without extraction of the peptide from the rat plasma. […]

Q: Which solubility [1] does the source give for `CC(C)[C@@H]1NC(=O)[C@H](CCCCN)NC(=O)[C@@H](Cc2c[nH]c3ccccc23)NC(=O)[C@H](Cc2ccc(O)cc2)NC(=O)[C@@H](NC(=O)[C@H](N)Cc2ccc3ccccc3c2)CSSC[C@@H](C(=O)N[C@H](C(N)=O)[C@@H](C)O)NC1=O` [SOMATULINE™] here?
A: 26.0 mg/mL

Q: What about the “duration of sustained release of at least 1.0 ng/ml of the peptide in the blood” value [2] of the same compound?
A: over one month
